Experimental data published in ChEMBL document CHEMBL1201862, “PubChem BioAssay data set” (2004).
Active and inactive are the calls of the source.

Assays:
[1] = molecular target: T1, Polyadenylate-binding protein 1 (Homo sapiens, UniProt P11940); test: PABP1 MLLE–PAM2 interaction inhibitors, dose response, miRNA deadenylation inhibitor project, biochemical, fluorescence polarization, Cy5-PAM2 peptide, secondary (AID 602260); assay type: functional; conditions: read-out: IC50_Mean
[2] = molecular target: T1, Polyadenylate-binding protein 1; test: PABP1 MLLE–PAM2 binding inhibitor potency, dose response, biochemical, fluorescence polarization, FITC-PAM2 peptide (AID 602259); assay type: functional; conditions: read-out: IC50_Mean
[3] = molecular target: T2, Corticotropin-releasing factor receptor 2/Corticotropin-releasing factor-binding protein (Homo sapiens, UniProt P24387+Q13324); test: Dose Response confirmation of uHTS hits for small molecule antagonists of the CRF-binding protein and CRF-R2 receptor complex.; assay type: functional; conditions: read-out: IC50_Mean
T2 sequence (Q13324 whole entry): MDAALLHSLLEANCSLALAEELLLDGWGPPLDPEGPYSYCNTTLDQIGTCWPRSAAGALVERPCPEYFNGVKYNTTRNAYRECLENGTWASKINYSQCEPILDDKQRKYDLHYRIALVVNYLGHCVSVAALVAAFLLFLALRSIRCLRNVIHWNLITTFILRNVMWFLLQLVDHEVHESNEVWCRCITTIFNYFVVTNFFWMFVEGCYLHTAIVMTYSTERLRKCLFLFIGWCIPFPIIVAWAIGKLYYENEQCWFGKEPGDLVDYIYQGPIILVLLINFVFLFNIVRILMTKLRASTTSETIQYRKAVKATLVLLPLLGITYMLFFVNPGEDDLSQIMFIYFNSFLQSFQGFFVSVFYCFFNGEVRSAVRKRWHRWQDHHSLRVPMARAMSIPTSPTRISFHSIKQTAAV
T2 sequence (P24387 whole entry): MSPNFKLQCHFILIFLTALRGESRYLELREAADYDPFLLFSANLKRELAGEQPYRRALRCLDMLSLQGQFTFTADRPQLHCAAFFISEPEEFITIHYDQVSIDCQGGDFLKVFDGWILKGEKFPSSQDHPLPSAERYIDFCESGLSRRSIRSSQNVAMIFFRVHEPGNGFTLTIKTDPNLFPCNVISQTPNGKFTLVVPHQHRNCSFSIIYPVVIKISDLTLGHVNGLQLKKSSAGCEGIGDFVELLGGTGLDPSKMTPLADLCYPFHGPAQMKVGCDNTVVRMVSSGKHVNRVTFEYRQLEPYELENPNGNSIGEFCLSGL

[4] = molecular target: T2, Corticotropin-releasing factor receptor 2/Corticotropin-releasing factor-binding protein; test: activators of CRF receptor 2 with binding protein – uHTS hits, confirmation (AID 602473); assay type: functional; conditions: read-out: EC50_Mean
[5] = Luminescence Cell-Based Dose Confirmation HTS to Identify Activators of 5'UTR Stem-Loop Driven Alpha-Synuclein mRNA Translation in H4 Neuroglioblastoma Cells. [Related pubchem assays: 1829 (Project Summary), 1814 (Primary HTS)]; assay type: functional
[6] = Luminescence Cell-Based Dose Response HTS to Identify Activators of Luciferase Translation or Activity in H4 […] Cells. [Related pubchem assays: 1829 (Project Summary), 1814 (Primary HTS)]; assay type: functional
[7] = molecular target: Large T antigen (Simian virus 40, UniProt P03070); assay type: functional, Betapolyomavirus macacae;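 note: Confirmatory-stage PubChem screen for compounds that inhibit SV40 T antigen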
Sequence of Large T antigen (P03070 whole entry): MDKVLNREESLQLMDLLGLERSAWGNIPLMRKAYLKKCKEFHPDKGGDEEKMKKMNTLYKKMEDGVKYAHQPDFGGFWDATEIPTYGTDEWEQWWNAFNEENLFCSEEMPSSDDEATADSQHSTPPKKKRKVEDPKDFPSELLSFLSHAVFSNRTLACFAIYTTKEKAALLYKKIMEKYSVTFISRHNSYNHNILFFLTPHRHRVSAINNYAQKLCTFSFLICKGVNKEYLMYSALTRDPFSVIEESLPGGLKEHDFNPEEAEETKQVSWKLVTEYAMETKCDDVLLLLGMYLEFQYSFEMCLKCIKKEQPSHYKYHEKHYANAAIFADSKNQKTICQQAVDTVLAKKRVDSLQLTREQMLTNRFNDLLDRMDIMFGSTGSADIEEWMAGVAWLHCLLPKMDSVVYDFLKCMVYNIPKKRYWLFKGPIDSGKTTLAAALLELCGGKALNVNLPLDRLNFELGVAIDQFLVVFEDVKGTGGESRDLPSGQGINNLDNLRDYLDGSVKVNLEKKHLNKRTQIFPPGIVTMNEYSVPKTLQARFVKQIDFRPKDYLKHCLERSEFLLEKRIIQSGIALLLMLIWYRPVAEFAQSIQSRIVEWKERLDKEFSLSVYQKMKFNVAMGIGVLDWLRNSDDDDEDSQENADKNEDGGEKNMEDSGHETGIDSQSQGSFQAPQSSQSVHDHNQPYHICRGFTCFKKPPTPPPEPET

[8] = test system: H4; test: Luminescence Cell-Based Dose Response HTS to Identify Activators of 5'UTR Stem-Loop Driven Prion Protein mRNA Translation in H4 Neuroglioblastoma Cells. [Related pubchem assays: 1829 (Project Summary), 1814 (Primary HTS)]; assay type: functional; conditions: Homo sapiens
[9] = NIH-3T3 fibroblast cytotoxicity, dose response, cytotoxicity control, cell-based, fluorescence, Alamar Blue, secondary assay (AID 2327); assay type: functional;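 note: NIH-3T3 mouse fibroblasts cultured with fluconazole at 8 µg/mL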
[10] = inhibitors of firefly luciferase expression or activity, dose response, H4 neuroglioma cells, luminescence (AID 1990); assay type: functional, cell-based
[11] = Luminescence Cell-Based Dose Response HTS to Identify Inhibitors of 5'UTR Stem-Loop Driven Prion Protein mRNA Translation in H4 Neuroglioblastoma Cells. [Related pubchem assays: 1827 (Project Summary), 1813 (Primary HTS)]; assay type: functional
[12] = inhibitors of SNCA 5'UTR-driven reporter translation, confirmation, H4 neuroglioma cells, luminescence (AID 1988); assay type: functional, cell-based
[13] = C. albicans growth with fluconazole, confirmation, fluorescence, retest (AID 2467); assay type: functional, cell-based
[14] = inhibitors of intracellular T. cruzi replication, confirmation, NIH3T3 host cells, beta-gal luminescence (AID 2044); assay type: functional, cell-based;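 note: intracellular parasites grown in NIH/3T3 mouse fibroblasts as host cells; luminescent beta-galactosidase reporter signal from transgenic T. cruzi replicating inside host cells; inhibitors lower the luminescence signal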
[15] = cytotoxicity toward NIH3T3 fibroblasts, dose response, counter-screen, cell-based, ATP luminescence, mouse fibroblasts (AID 2010); assay type: functional;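 note: cells exposed to compound for about 90 hours before reading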
[16] = test system: INS1; test: beta cell apoptosis inhibitors, cytokine rescue, dose response, luminescence, retest (AID 449756); assay type: functional, cell-based; conditions: Rattus norvegicus;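 note: cell death triggered by IL-1 beta plus TNF-alpha plus IFN-gamma mixture; protective hits raise ATP signal compared with cytokine alone wells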
[17] = HEp-2 cell cytotoxicity, dose response, cytotoxicity control for RSV inhibitor project, HTS (AID 2410); assay type: functional; conditions: human respiratory syncytial virus

T1 sequence (P11940 whole entry): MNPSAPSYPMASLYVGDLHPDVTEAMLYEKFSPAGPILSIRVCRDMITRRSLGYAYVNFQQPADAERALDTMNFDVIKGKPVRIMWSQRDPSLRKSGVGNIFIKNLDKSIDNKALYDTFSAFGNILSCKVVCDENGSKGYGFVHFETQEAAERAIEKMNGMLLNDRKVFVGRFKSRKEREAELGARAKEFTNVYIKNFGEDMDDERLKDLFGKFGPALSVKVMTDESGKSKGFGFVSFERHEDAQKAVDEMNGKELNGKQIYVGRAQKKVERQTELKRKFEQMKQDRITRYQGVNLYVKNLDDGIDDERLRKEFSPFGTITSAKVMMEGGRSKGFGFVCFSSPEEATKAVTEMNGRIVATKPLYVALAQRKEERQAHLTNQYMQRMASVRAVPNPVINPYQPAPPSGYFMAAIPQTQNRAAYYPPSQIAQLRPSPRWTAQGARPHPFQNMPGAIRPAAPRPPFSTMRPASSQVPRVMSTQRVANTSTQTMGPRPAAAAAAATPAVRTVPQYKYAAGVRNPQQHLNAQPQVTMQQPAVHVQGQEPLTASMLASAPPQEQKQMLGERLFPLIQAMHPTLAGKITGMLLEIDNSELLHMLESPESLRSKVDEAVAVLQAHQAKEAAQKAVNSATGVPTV

In the case of COc1ccc(Cl)cc1N=C(S)Nc1ccccc1F, the IC50 [1] is reported as > 66 µM (inactive) and the IC50 [2] is reported as > 66 µM (inactive).

In the case of Cc1cc(Cl)ccc1N=C(S)Nc1cccnc1, the IC50 [1] is reported as > 66 µM (inactive) and the IC50 [2] is reported as > 66 µM (inactive).

With COc1ccc(NC(=O)NCCCN2CCc3ccccc3C2)cc1 the IC50 [3] was > 47.1 µM (inactive) and the EC50 [4] was > 53 µM (inactive).

For COc1ccc(CN2CCN(C(=O)c3cccs3)CC2)c(OC)c1OC, the IC50 [3] was > 47.1 µM (inactive) and the EC50 [4] was > 53 µM (inactive).

For CC1(C)Cc2ccccc2-c2c1c(=O)n(Cc1ccccc1)c1nnnn21, the IC50 [3] was > 47.1 µM (inactive) and the EC50 [4] was > 53 µM (inactive).

With c1ccc(NC2=Nc3ccccc3CS2)cc1 the EC50 [5] was 0.465 µM (active) and the EC50 [6] was 0.409 µM (active).

With CCN(CC)c1ccc(NC(=O)c2cccc(C)c2OC)c(C)c1 the IC50 [7] was 32 µM (active).

In the case of CCOc1cccc(-c2csc(C3COc4ccccc4O3)n2)c1 (configuration not stated), the EC50 [5] is reported as 13.4 µM (active) and the EC50 [8] is reported as 37.5 µM (active).

In the case of CC(C)[C@H]1C(=O)O[C@H](C(C)C)C(=O)N(C)[C@@H](C(C)C)C(=O)O[C@H](C(C)C)C(=O)N(C)[C@@H](C(C)C)C(=O)O[C@H](C(C)C)C(=O)N1C [ENNIATIN B], the EC50 [9] is reported as 3.22 µM (inconclusive), the EC50 [10] is reported as 5.62 µM (active) and the EC50 [11] is reported as > 120 µM (not active). The EC50 [12] was > 120 µM (not active), the EC50 [13] was 0.374 µM (active) and the EC50 [14] was 0.853 µM (active). The EC50 [15] was 3.66 µM (active) and the AC50 [16] was 2.99 µM (active).

In the case of CCc1ccc(NC(=O)Cn2nc(C(=O)O)c3ccccc3c2=O)cc1, the IC50 [3] is reported as > 47.1 µM (inactive) and the EC50 [4] is reported as > 53 µM (inactive).

In the case of CC(C)(C)c1ccc(C(=O)NNC(=O)C2CCCCC2)cc1, the EC50 [5] is reported as 19.6 µM (active), the EC50 [6] is reported as 30.7 µM (active) and the EC50 [8] is reported as 59.3 µM (active).

For CSc1nc2ncc(-c3ccsc3)c(N)n2n1, the EC50 [5] was > 120 µM (not active), the EC50 [6] was 19.5 µM (active) and the EC50 [8] was 27.2 µM (active).

For CN1/C(=C\C(=O)c2cccc([N+](=O)[O-])c2)Sc2ccccc21, the IC50 [1] was > 66 µM (inactive) and the IC50 [2] was > 66 µM (inactive).

For O=C(NC1=NCCS1)c1cccs1, the IC50 [1] was > 66 µM (inactive) and the IC50 [2] was > 66 µM (inactive).

For Clc1ccc(-c2csc(N3CCOCC3)n2)cc1, the IC50 [3] was > 47.1 µM (inactive) and the EC50 [4] was > 53 µM (inactive).

With COc1cc(/C=N/NC(=O)c2ccccc2O)ccc1OC(=O)CC1SC(=O)NC1=O (configuration not stated) the IC50 [7] was 35.1 µM (active).

For O=C1c2ccccc2C2C3=C(O)CC(c4ccco4)CC3=Nc3ccccc3N12 (configuration not stated), the EC50 [5] was > 120 µM (not active), the EC50 [6] was 41 µM (active) and the EC50 [8] was > 120 µM (not active).

In the case of CC(c1nc(O)c2ccccc2n1)N(C)c1ccc2ccccc2c1 (configuration not stated), the IC50 [1] is reported as > 66 µM (inactive) and the IC50 [2] is reported as > 66 µM (inactive).

With COc1ccc(NC(=O)CN(C)C(=O)/C=C/c2ccc(S(=O)(=O)N3CCCCCC3)cc2)cc1 the AC50 [16] was 24.3 µM (active).

In the case of CCc1nc2cccnc2n1-c1ccc(C(=O)O)cc1, the IC50 [1] is reported as > 66 µM (inactive) and the IC50 [2] is reported as 49.5 µM (inactive).

In the case of CC(C)(C)C(=O)Nc1ccc(C(=O)N/N=C/c2ccccc2OC(=O)c2ccc(Cl)cc2)cc1, the AC50 [16] is reported as 2.83 µM (active).

With O=[N+]([O-])c1ccc(N2CCN(c3ccc(O)cc3)CC2)cn1 the IC50 [7] was 26.7 µM (active).

For C1CCCCC1.OCCN1CCN(C2Cc3cc(Cl)ccc3Sc3ccc(Cl)cc32)CC1 (configuration not stated), the CC50 [17] was 13.8 µM (active) and the AC50 [16] was 13 µM (active).

For COC(=O)CC(NC(=S)NC(=O)c1ccccc1)c1ccc(Br)cc1 (configuration not stated), the IC50 [1] was > 66 µM (inactive) and the IC50 [2] was > 66 µM (inactive).

For Cc1ccc(NC(=O)COC(=O)CN2C(=O)NC3(CCCC3)C2=O)cc1S(=O)(=O)N(C)C, the IC50 [3] was > 47.1 µM (inactive) and the EC50 [4] was > 53 µM (inactive).

In the case of Cc1nn(C)c(C)c1NC(=O)c1cc2nc(-c3ccco3)cc(C(F)(F)F)n2n1, the IC50 [3] is reported as > 47.1 µM (inactive) and the EC50 [4] is reported as > 53 µM (inactive).

In the case of Oc1ccc(N2CCN(C(c3ccncc3)c3nnnn3C3CCCC3)CC2)cc1 (configuration not stated), the IC50 [7] is reported as 5.61 µM (active).
